Measurements: patent US11053204B2, “Pyrimidinyloxy benzene derivatives as herbicides” (FMC Corporation, priority 2015, dated 2021)

What was measured:
Type in all cases: in vivo
[1] = test system: Italian ryegrass (Lolium multiflorum); test: Test A preemergence, visual injury rating
Source text: (§1) Seeds of plant species selected from barnyardgrass (Echinochloa crus-galli), kochia (Kochia scoparia), ragweed (common ragweed, Ambrosia elatior), Italian ryegrass (Lolium multiflorum), large (Lg) crabgrass (Digitaria sanguinalis), giant foxtail (Setaria faberii), morningglory (Ipomoea spp.), pigweed (Amaranthus retroflexus), velvetleaf (Abutilon theophrasti), wheat (Triticum aestivum), and corn (Zea mays) were planted into a blend of loam soil and sand and treated preemergence with a directed soil spray using test chemicals formulated in a non-phytotoxic solvent mixture which included a surfactant.
(§2) At the same time, plants selected from these crop and weed species and also blackgrass (Alopecurus myosuroides), and galium (catchweed bedstraw, Galium aparine) were planted in pots containing the same blend of loam soil and sand and treated with postemergence applications of test chemicals formulated in the same manner. Plants ranged in height from 2 to 10 cm and were in the one- to two-leaf stage for the postemergence treatment. Treated plants and untreated controls were maintained in a greenhouse for approximately 10 days, after which time all treated plants were compared to untreated controls and visually evaluated for injury. Plant response ratings, summarized in Table A, are based on a 0 to 100 scale where 0 is no effect and 100 is complete control. A dash (-) response means no test result.

[2] = test system: barnyardgrass (Echinochloa crus-galli); test: Test A preemergence, visual injury rating
Source text: as §1, §2

[3] = test system: giant foxtail (Setaria faberii); test: Test A preemergence, visual injury rating
Source text: as §1, §2

kochia (Kochia scoparia) [4] = test: Test A preemergence, visual injury rating
Source text: as §1, §2

[5] = test system: pigweed (Amaranthus retroflexus); test: Test A preemergence, visual injury rating
Source text: as §1, §2

[6] = test system: ragweed (common ragweed, Ambrosia elatior); test: Test A preemergence, visual injury rating
Source text: as §1, §2

[7] = test system: Italian ryegrass (Lolium multiflorum); test: Test A postemergence, visual injury rating
Source text: as §1, §2

[8] = test system: barnyardgrass (Echinochloa crus-galli); test: Test A postemergence, visual injury rating; conditions: 0 is no effect, 100 is complete control; for Barnyardgrass plant response rating: 0 to 100 scale, approximately 10 days
Source text: as §1, §2

[9] = test system: blackgrass (Alopecurus myosuroides); test: Test A postemergence, visual injury rating
Source text: as §1, §2

corn (Zea mays) = test: Test A postemergence, visual injury rating
Source text: as §1, §2

[10] = test system: galium (catchweed bedstraw, Galium aparine); test: Test A postemergence, visual injury rating
Source text: as §1, §2

[11] = test system: giant foxtail (Setaria faberii); test: Test A postemergence, visual injury rating
Source text: as §1, §2

kochia (Kochia scoparia) [12] = test: Test A postemergence, visual injury rating
Source text: as §1, §2

[13] = test system: pigweed (Amaranthus retroflexus); test: Test A postemergence, visual injury rating
Source text: as §1, §2

[14] = test system: ragweed (common ragweed, Ambrosia elatior); test: Test A postemergence, visual injury rating
Source text: as §1, §2

[15] = test system: wheat (Triticum aestivum); test: Test A postemergence, visual injury rating
Source text: as §1, §2

[16] = test system: barnyardgrass (Echinochloa crus-galli); test: Test B flooded paddy test, plant response rating; conditions: 250 g ai/ha; Flood; scale of 0 to 100 where 0 is no effect and 100 is complete control; 13 to 15 days
Source text: (§3) At time of treatment, test pots were flooded to 3 cm above the soil surface, treated by application of test compounds directly to the paddy water, and then maintained at that water depth for the duration of the test. Treated plants and controls were maintained in a greenhouse for 13 to 15 days, after which time all species were compared to controls and visually evaluated. […] A dash (-) response means no test result.

[17] = test system: ducksalad (Heteranthera limosa); test: Test B flooded paddy test, plant response rating; conditions: 250 g ai/ha; Flood; scale of 0 to 100 where 0 is no effect and 100 is complete control; 13 to 15 days
Source text: as §3

rice (Oryza sativa) = test: Test B flooded paddy test, plant response rating; conditions: 250 g ai/ha; Flood; scale of 0 to 100 where 0 is no effect and 100 is complete control; 13 to 15 days
Source text: as §3

[18] = test system: sedge, umbrella (small-flower umbrella sedge, Cyperus difformis); test: Test B flooded paddy test, plant response rating; conditions: 250 g ai/ha; Flood; scale of 0 to 100 where 0 is no effect and 100 is complete control; 13 to 15 days
Source text: as §3

[19] = 31 g ai/ha, 0 to 100 scale, 0 no effect, 100 complete control
[20] = 125 g ai/ha, 0 to 100 scale (0 no effect, 100 complete control)
[21] = 31 g ai/ha, 0 to 100 scale (0 no effect, 100 complete control)
[22] = 125 g ai/ha, 0 to 100 scale, 0 is no effect, 100 is complete control, approximately 10 days
[23] = 31 g ai/ha, 0 to 100 scale, 0 is no effect, 100 is complete control, approximately 10 days
[24] = 500 g ai/ha, 0 to 100 scale (0 no effect, 100 complete control)
[25] = 500 g ai/ha, 0 is no effect, 100 is complete control

SMILES	Plant response rating, Ryegrass, Italian [1, 19]	Plant response rating, Ryegrass, Italian [1, 20]	Plant response rating, Barnyardgrass [2, 19]	Plant response rating, Foxtail, Giant [3, 20]	Plant response rating, Kochia (kochia (Kochia scoparia) [4]; [20])	Plant response rating, Pigweed [5, 20]	Plant response rating, Ragweed [6, 20]	Ryegrass, Italian plant response rating [7, 22]	Barnyardgrass plant response rating ([8]; 125 g ai/ha)	Blackgrass plant response rating [9, 22]	Corn plant response rating (corn (Zea mays); [22])	Galium plant response rating [10, 22]	Foxtail, Giant plant response rating [11, 22]	Pigweed plant response rating [13, 22]	Ragweed plant response rating [14, 22]	Wheat plant response rating [15, 22]	Plant response rating, Barnyardgrass [16]	Plant response rating, Ducksalad [17]	Plant response rating, Rice (rice (Oryza sativa))	Plant response rating, Sedge, Umbrella [18]	further results
N#Cc1cccc(Oc2ncc(Cl)cn2)c1COCC(F)(F)F [Compound 131]	0	20	0	90	100	100	0	20	10	0	30	50	20	80	0	20	15	80	15	90	Plant response rating, Barnyardgrass [2, 20]: 100; Plant response rating, Foxtail, Giant [3, 19]: 0; Plant response rating, Kochia (kochia (Kochia scoparia) [4]; [19]): 10; Plant response rating, Pigweed [5, 19]: 90; Plant response rating, Ragweed [6, 19]: 0; Ryegrass, Italian plant response rating [7, 21]: 0; Barnyardgrass plant response rating ([8]; 31 g ai/ha): 0; Blackgrass plant response rating [9, 21]: 0; Corn plant response rating (corn (Zea mays); [21]): 20; Galium plant response rating [10, 21]: 20; Foxtail, Giant plant response rating [11, 21]: 0; Kochia plant response rating (kochia (Kochia scoparia) [12]; [21]): 40; Kochia plant response rating (kochia (Kochia scoparia) [12]; [22]): 90; Pigweed plant response rating [13, 21]: 50; Ragweed plant response rating [14, 21]: 0; Wheat plant response rating [15, 21]: 0
O=C(OCC(F)(F)C(F)F)c1c(Br)cccc1Oc1ncc(Cl)cn1 [Compound 103]	0	0	0	60	70	100	0	0	30	10	20	100	70	100	0	0	0	95	20	95	Barnyardgrass plant response rating [2, 20]: 50; Plant response rating, Foxtail, Giant [3, 19]: 10; Plant response rating, Kochia (kochia (Kochia scoparia) [4]; [19]): 0; Plant response rating, Pigweed [5, 19]: 40; Plant response rating, Ragweed [6, 19]: 0; Ryegrass, Italian plant response rating [7, 23]: 0; Barnyardgrass plant response rating ([8]; 31 g ai/ha): 0; Blackgrass plant response rating [9, 23]: 0; Corn plant response rating (corn (Zea mays); [23]): 20; Galium plant response rating [10, 23]: 70; Foxtail, Giant plant response rating [11, 23]: 10; Kochia plant response rating (kochia (Kochia scoparia) [12]; [23]): 70; Kochia plant response rating (kochia (Kochia scoparia) [12]; [22]): 100; Pigweed plant response rating [13, 23]: 90; Ragweed plant response rating [14, 23]: 0; Wheat plant response rating [15, 23]: 0
CCOCc1c(Br)cccc1Oc1ncc(Cl)cn1 [Compound 106]	–	0	–	80	30	30	0	0	40	0	0	0	10	10	0	0	0	0	0	0	Ryegrass, Italian plant response rating [1, 24]: 10; Barnyardgrass plant response rating [2, 20]: 0; Barnyardgrass plant response rating [2, 24]: 100; Foxtail, Giant plant response rating [3, 24]: 100; Kochia plant response rating (kochia (Kochia scoparia) [4]; [24]): 90; Pigweed plant response rating [5, 24]: 70; Ragweed plant response rating [6, 24]: 0; Ryegrass, Italian plant response rating (0 to 100 scale) [7, 25]: 0; Barnyardgrass plant response rating (0 to 100 scale) ([8]; 500 g ai/ha): 100; Blackgrass plant response rating (0 to 100 scale) [9, 25]: 20; Corn plant response rating (0 to 100 scale) (corn (Zea mays); [25]): 10; Galium plant response rating (0 to 100 scale) [10, 25]: 10; Foxtail, Giant plant response rating (0 to 100 scale) [11, 25]: 70; Pigweed plant response rating (0 to 100 scale) [13, 25]: 20; Ragweed plant response rating (0 to 100 scale) [14, 25]: 0; Wheat plant response rating (0 to 100 scale) [15, 25]: 0
